For 23 molecules, IC50 results are on record in patent US20260374756A1, “HETEROCYCLIC COMPOUNDS AS INHIBITORS OF MONOACYLGLYCEROL LIPASE (MAGL)” (Hoffmann-La Roche Inc., priority 2022, published 2026).

The assay deals with T1, hMAGL (Homo sapiens, UniProt Q99685).
T1 sequence (Q99685 1-303): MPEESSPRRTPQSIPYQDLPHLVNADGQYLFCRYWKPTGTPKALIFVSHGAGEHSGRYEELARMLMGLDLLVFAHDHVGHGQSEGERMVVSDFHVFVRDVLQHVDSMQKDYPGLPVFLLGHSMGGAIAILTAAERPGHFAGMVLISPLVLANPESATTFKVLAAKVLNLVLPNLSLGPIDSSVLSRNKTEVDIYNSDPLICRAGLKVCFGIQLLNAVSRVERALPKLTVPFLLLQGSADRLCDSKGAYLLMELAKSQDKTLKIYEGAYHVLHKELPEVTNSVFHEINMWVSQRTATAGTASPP
The assay can be described thus: 2-AG assay: MAGL inhibition, hydrolysis of 2-arachidonoylglycerol to arachidonic acid followed by mass spectrometry. The format is biochemical. In a few lines:
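MAGL preincubated with compound 15 min at RT in 50 mM Tris, 1 mM EDTA, 0.01% Tween-20, 2.5% DMSO; reaction started with 8 μM 2-AG (final), […], 30 min at RT. Quenched with acetonitrile containing d8-arachidonic acid; arachidonic acid quantified by RapidFire SPE-triple quad MS as arachidonic acid/d8 ratio.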
As a reminder, the IC50 is the concentration that gives 50% inhibition. A low value points to inhibition by little substance. Take `Cc1cc(C(F)(F)F)n(CC2CC3(C2)CN(C(=O)N2CC4(CC(n5cnc(C6CC6)n5)C4)C2)C3)n1` [Example 72, [6-(3-cyclopropyl-1,2,4-triazol-1-yl)-2-azaspiro[3.3]heptan-2-yl]-[6-[[3-methyl-5-(trifluoromethyl)pyrazol-1-yl]methyl]-2-azaspiro[3.3]heptan-2-yl]methanone]: the IC50 came out at 3.09 nM.
In the case of `O=C(N1CC2(CC(n3cnc(C(F)(F)F)n3)C2)C1)N1CC2(CN(Cc3cc(C(F)(F)F)[nH]n3)C2)C1` [Example 241, [6-[[5-(trifluoromethyl)-1H-pyrazol-3-yl]methyl]-2,6-diazaspiro[3.3]heptan-2-yl]-[6-[3-(trifluoromethyl)-1,2,4-triazol-1-yl]-2-azaspiro[3.3]heptan-2-yl]methanone] it was 18.7 nM; in that of `O=C(N1CC2(CCC(Cc3nnc(C(F)(F)F)[nH]3)CC2)C1)N1CC2(CC(n3cnc(C(F)F)n3)C2)C1` [Example 315, [6-[3-(difluoromethyl)-1,2,4-triazol-1-yl]-2-azaspiro[3.3]heptan-2-yl]-[7-[[5-(trifluoromethyl)-4H-1,2,4-triazol-3-yl]methyl]-2-azaspiro[3.5]nonan-2-yl]methanone], 113 nM.
The figure for `O=C(N1CC2(CC(Cc3nc(CC(F)(F)F)n[nH]3)C2)C1)N1CC2(CC(n3cnc(C4(O)CC4)n3)C2)C1` [Example 205, [6-[3-(1-hydroxycyclopropyl)-1,2,4-triazol-1-yl]-2-azaspiro[3.3]heptan-2-yl]-[6-[[3-(2,2,2-trifluoroethyl)-1H-1,2,4-triazol-5-yl]methyl]-2-azaspiro[3.3]heptan-2-yl]methanone] is 72.9 nM; for `O=C(N1CC2(CC(Cc3cnn(CC(F)(F)F)c3)C2)C1)N1CC2(CC(c3cc(C4CC4)n[nH]3)C2)C1` [Example 290, [6-(3-cyclopropyl-1H-pyrazol-5-yl)-2-azaspiro[3.3]heptan-2-yl]-[6-[[1-(2,2,2-trifluoroethyl)pyrazol-4-yl]methyl]-2-azaspiro[3.3]heptan-2-yl]methanone] it is 0.86 nM.
In the case of `O=C(N1CC2(CC(Cc3cc(C(F)(F)F)nn3CC(F)(F)F)C2)C1)N1CC2(CC(n3cnc(C(F)(F)F)n3)C2)C1` [Example 140, [6-[[2-(2,2,2-trifluoroethyl)-5-(trifluoromethyl)pyrazol-3-yl]methyl]-2-azaspiro[3.3]heptan-2-yl]-[6-[3-(trifluoromethyl)-1,2,4-triazol-1-yl]-2-azaspiro[3.3]heptan-2-yl]methanone] it was 0.47 nM; in that of `O=C(N1CC2(CC(Cn3cc(C(F)(F)F)nn3)C2)C1)N1CC2(CC(n3cnc(C4CC4)n3)C2)C1` [Example 104, [6-(3-cyclopropyl-1,2,4-triazol-1-yl)-2-azaspiro[3.3]heptan-2-yl]-[6-[[4-(trifluoromethyl)triazol-1-yl]methyl]-2-azaspiro[3.3]heptan-2-yl]methanone], 1.45 nM; in that of `Cn1nc(C(F)(F)F)cc1CN1CC2(C1)CN(C(=O)N1CC3(CC(n4cnc(C5CC5)n4)C3)C1)C2` [Example 167, [6-(3-cyclopropyl-1,2,4-triazol-1-yl)-2-azaspiro[3.3]heptan-2-yl]-[6-[[2-methyl-5-(trifluoromethyl)pyrazol-3-yl]methyl]-2,6-diazaspiro[3.3]heptan-2-yl]methanone], 5.6 nM.
With `Cc1nc(C)c(CN2CC3(C2)CN(C(=O)N2CC4(CC(n5cnc(C6CC6)n5)C4)C2)C3)o1` [Example 307, [6-(3-cyclopropyl-1,2,4-triazol-1-yl)-2-azaspiro[3.3]heptan-2-yl]-[6-[(2,4-dimethyloxazol-5-yl)methyl]-2,6-diazaspiro[3.3]heptan-2-yl]methanone], half-maximal inhibition (IC50) was put at 102 nM.
In turn, `O=C(N1CC2(CCN(Cc3nc(C(F)(F)F)cs3)CC2)C1)N1CC2(CC(n3cnc(C(F)(F)F)n3)C2)C1` [Example 176, [7-[[4-(trifluoromethyl)thiazol-2-yl]methyl]-2,7-diazaspiro[3.5]nonan-2-yl]-[6-[3-(trifluoromethyl)-1,2,4-triazol-1-yl]-2-azaspiro[3.3]heptan-2-yl]methanone] had an IC50 of 44.8 nM.
In the case of `O=C(N1CC2(CC(n3cnc(C(F)(F)F)n3)C2)C1)N1CC2(CN(Cc3cnc(C(F)(F)F)o3)C2)C1` [Example 211, [6-[[2-(trifluoromethyl)oxazol-5-yl]methyl]-2,6-diazaspiro[3.3]heptan-2-yl]-[6-[3-(trifluoromethyl)-1,2,4-triazol-1-yl]-2-azaspiro[3.3]heptan-2-yl]methanone] it was 52.9 nM; in that of `O=C(N1CC2(CC(Cc3nc(C(F)(F)F)c[nH]3)C2)C1)N1CC2(CC(n3cnc(C(F)F)n3)C2)C1` [Example 326, [6-[3-(difluoromethyl)-1,2,4-triazol-1-yl]-2-azaspiro[3.3]heptan-2-yl]-[6-[[4-(trifluoromethyl)-1H-imidazol-2-yl]methyl]-2-azaspiro[3.3]heptan-2-yl]methanone], 22.6 nM.
In the case of `Cn1nc(C2CC2)cc1CN1CC2(C1)CN(C(=O)N1CC3(CC(c4cc(C5CC5)n[nH]4)C3)C1)C2` [Example 270, [6-[(5-cyclopropyl-2-methyl-pyrazol-3-yl)methyl]-2,6-diazaspiro[3.3]heptan-2-yl]-[6-(3-cyclopropyl-1H-pyrazol-5-yl)-2-azaspiro[3.3]heptan-2-yl]methanone] it was 4.89 nM; in that of `O=C(N1CC2(CC(Cc3n[nH]c(C4CC4)n3)C2)C1)N1CC2(CC(n3cnc(C(F)(F)F)n3)C2)C1` [Example 303, [6-[(5-cyclopropyl-1H-1,2,4-triazol-3-yl)methyl]-2-azaspiro[3.3]heptan-2-yl]-[6-[3-(trifluoromethyl)-1,2,4-triazol-1-yl]-2-azaspiro[3.3]heptan-2-yl]methanone], 9.41 nM; in that of `O=C(N1CC2(CC(n3cnc(C4CC4)n3)C2)C1)N1CC2(CN(Cc3nccn3C(F)(F)F)C2)C1` [Example 236, [6-(3-cyclopropyl-1,2,4-triazol-1-yl)-2-azaspiro[3.3]heptan-2-yl]-[6-[[1-(trifluoromethyl)imidazol-2-yl]methyl]-2,6-diazaspiro[3.3]heptan-2-yl]methanone], 18.1 nM.
`O=C(N1CC2(CC(Cc3cc(C(F)F)n[nH]3)C2)C1)N1CC2(CC(n3cnc(C4CC4)n3)C2)C1` [Example 296, [6-(3-cyclopropyl-1,2,4-triazol-1-yl)-2-azaspiro[3.3]heptan-2-yl]-[6-[[3-(difluoromethyl)-1H-pyrazol-5-yl]methyl]-2-azaspiro[3.3]heptan-2-yl]methanone] came in with an IC50 of 0.17 nM.
The figure for `CC(F)(F)c1noc(CN2CC3(C2)CN(C(=O)N2CC4(CC(n5cnc(C6CC6)n5)C4)C2)C3)n1` [Example 259, [6-(3-cyclopropyl-1,2,4-triazol-1-yl)-2-azaspiro[3.3]heptan-2-yl]-[6-[[3-(1,1-difluoroethyl)-1,2,4-oxadiazol-5-yl]methyl]-2,6-diazaspiro[3.3]heptan-2-yl]methanone] is 8.92 nM; for `O=C(N1CC2(CC(n3cnc(C4CC4)n3)C2)C1)N1CC2(CN(Cc3coc(C(F)(F)F)n3)C2)C1` [Example 214, [6-(3-cyclopropyl-1,2,4-triazol-1-yl)-2-azaspiro[3.3]heptan-2-yl]-[6-[[2-(trifluoromethyl)oxazol-4-yl]methyl]-2,6-diazaspiro[3.3]heptan-2-yl]methanone] it is 28.5 nM; for `O=C(N1CC2(CC(Cc3cc(C4(C(F)(F)F)CC4)[nH]n3)C2)C1)N1CC2(CC(n3cnc(C(F)F)n3)C2)C1` [Example 352, [6-[3-(difluoromethyl)-1,2,4-triazol-1-yl]-2-azaspiro[3.3]heptan-2-yl]-[6-[[5-[1-(trifluoromethyl)cyclopropyl]-1H-pyrazol-3-yl]methyl]-2-azaspiro[3.3]heptan-2-yl]methanone] it is 0.6 nM.
In the case of `Cc1cc(C(F)F)nn1CC1CC2(C1)CN(C(=O)N1CC3(CC(n4cnc(C5(O)CC5)n4)C3)C1)C2` [Example 96, [6-[[3-(difluoromethyl)-5-methyl-pyrazol-1-yl]methyl]-2-azaspiro[3.3]heptan-2-yl]-[6-[3-(1-hydroxycyclopropyl)-1,2,4-triazol-1-yl]-2-azaspiro[3.3]heptan-2-yl]methanone] it was 3.05 nM; in that of `O=C(N1CC2(CCN(Cc3ncc(C(F)F)s3)CC2)C1)N1CC2(CC(n3cnc(C4(O)CC4)n3)C2)C1` [Example 33, [7-[[5-(difluoromethyl)thiazol-2-yl]methyl]-2,7-diazaspiro[3.5]nonan-2-yl]-[6-[3-(1-hydroxycyclopropyl)-1,2,4-triazol-1-yl]-2-azaspiro[3.3]heptan-2-yl]methanone], 76.5 nM; in that of `O=C(N1CC2(CCN(Cc3cc(C(F)(F)F)no3)CC2)C1)N1CC2(CC(n3cnc(C(F)(F)F)n3)C2)C1` [Example 317, [7-[[3-(trifluoromethyl)isoxazol-5-yl]methyl]-2,7-diazaspiro[3.5]nonan-2-yl]-[6-[3-(trifluoromethyl)-1,2,4-triazol-1-yl]-2-azaspiro[3.3]heptan-2-yl]methanone], 68.1 nM.
In the case of `O=C(N1CC2(CC(n3cnc(C4CC4)n3)C2)C1)N1CC2(CN(Cc3cn[nH]c3C(F)(F)F)C2)C1` [Example 50, [6-(3-cyclopropyl-1,2,4-triazol-1-yl)-2-azaspiro[3.3]heptan-2-yl]-[6-[[5-(trifluoromethyl)-1H-pyrazol-4-yl]methyl]-2,6-diazaspiro[3.3]heptan-2-yl]methanone] it was 7.9 nM.
